Reference: ChEMBL document CHEMBL4152300, “Discovery of the selective and efficacious inhibitors of FLT3 mutations” (Eur J Med Chem, 2018)
pIC50: −log10 of the molar value.

Legend:
[1] = biological target: Cyclin-dependent kinase 6 (Homo sapiens, UniProt Q00534); test: Inhibition of CDK6 (unknown origin) assessed as residual activity at 0.123 uM by Hotspot assay relative to control
MV4-11 [2] = test: Growth inhibition of human MV4-11 cells harboring FLT3-ITD after 72 hrs by Cell-Titer Glo assay; format: functional, cell-based; settings: MV4-11, 72 h
[3] = Intrinsic clearance in human liver microsomes preincubated for 5 mins followed by NADPH addition by LC-MS/MS analysis; format: ADME, microsome; settings: read-out: CLH
[4] = Drug uptake in human liver microsomes up to 60 mins by LC-MS/MS analysis; format: ADME, microsome; settings: 1 h
[5] = biological target: Vascular endothelial growth factor receptor 1 (Homo sapiens, UniProt P17948); test: Inhibition of human FLT1 by Hotspot assay
[6] = biological target: Vascular endothelial growth factor receptor 3 (Homo sapiens, UniProt P35916); test: Inhibition of human FLT4 at 0.123 uM by Hotspot assay relative to control
Homo sapiens = organism: Homo sapiens; test: Selectivity ratio of IC50 for human FLT4 to IC50 for human FLT3
MOLM-13 = test: Growth inhibition of human MOLM13 cells harboring FLT3-ITD after 72 hrs by Cell-Titer Glo assay; format: functional, cell-based; settings: MOLM-13, 72 h
[7] = biological target: T1, Receptor-type tyrosine-protein kinase FLT3 (Homo sapiens, UniProt P36888); test: Inhibition of FLT3 in human MV4-11 cells assessed as reduction in AKT phosphorylation at Ser473 residue after 4 hrs by Western blot analysis; format: cell-based
[8] = biological target: T1, Receptor-type tyrosine-protein kinase FLT3; test: Inhibition of FLT3 in human MV4-11 cells assessed as reduction in ERK1/2 phosphorylation at Thr202/Tyr204 residues after 4 hrs by Western blot analysis; format: cell-based
MV4-11 [9] = test: Induction of apoptosis in human MV4-11 cells assessed as late apoptotic cells at 0.2 uM after 24 hrs by Annexin V-FITC/propidium iodide staining based flow cytometry (reference value: 0%); format: functional
MV4-11 [10] = test: Induction of apoptosis in human MV4-11 cells assessed as late apoptotic cells at 0.5 uM after 24 hrs by Annexin V-FITC/propidium iodide staining based flow cytometry (reference value: 0%); format: functional

T1 sequence (P36888 whole entry): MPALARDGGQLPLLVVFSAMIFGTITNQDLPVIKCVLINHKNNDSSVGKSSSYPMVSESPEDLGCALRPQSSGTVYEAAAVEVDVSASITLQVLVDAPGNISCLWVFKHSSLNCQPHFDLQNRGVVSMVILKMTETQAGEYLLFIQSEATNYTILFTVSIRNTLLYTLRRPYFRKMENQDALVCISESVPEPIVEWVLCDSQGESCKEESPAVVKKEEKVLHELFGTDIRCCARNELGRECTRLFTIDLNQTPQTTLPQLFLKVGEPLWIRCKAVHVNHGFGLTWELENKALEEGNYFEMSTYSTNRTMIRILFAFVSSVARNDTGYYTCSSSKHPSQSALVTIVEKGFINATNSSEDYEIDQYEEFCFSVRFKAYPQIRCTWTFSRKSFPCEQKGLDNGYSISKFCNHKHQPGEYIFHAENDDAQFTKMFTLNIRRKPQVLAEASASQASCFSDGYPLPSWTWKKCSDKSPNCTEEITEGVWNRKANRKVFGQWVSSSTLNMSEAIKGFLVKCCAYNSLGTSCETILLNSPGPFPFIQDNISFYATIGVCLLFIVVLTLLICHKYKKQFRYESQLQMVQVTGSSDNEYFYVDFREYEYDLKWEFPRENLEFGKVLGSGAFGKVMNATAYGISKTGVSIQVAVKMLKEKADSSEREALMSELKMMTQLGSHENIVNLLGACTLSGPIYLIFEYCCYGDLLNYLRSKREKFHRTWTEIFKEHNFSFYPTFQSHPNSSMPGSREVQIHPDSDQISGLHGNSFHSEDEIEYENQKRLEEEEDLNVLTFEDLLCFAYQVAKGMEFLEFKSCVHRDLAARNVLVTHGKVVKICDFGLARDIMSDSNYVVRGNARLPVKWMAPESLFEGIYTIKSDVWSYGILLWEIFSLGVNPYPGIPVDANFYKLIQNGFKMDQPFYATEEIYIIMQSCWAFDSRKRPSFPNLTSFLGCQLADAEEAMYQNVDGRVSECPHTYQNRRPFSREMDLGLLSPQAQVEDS
Chain of Vascular endothelial growth factor receptor 1 (P17948 whole entry): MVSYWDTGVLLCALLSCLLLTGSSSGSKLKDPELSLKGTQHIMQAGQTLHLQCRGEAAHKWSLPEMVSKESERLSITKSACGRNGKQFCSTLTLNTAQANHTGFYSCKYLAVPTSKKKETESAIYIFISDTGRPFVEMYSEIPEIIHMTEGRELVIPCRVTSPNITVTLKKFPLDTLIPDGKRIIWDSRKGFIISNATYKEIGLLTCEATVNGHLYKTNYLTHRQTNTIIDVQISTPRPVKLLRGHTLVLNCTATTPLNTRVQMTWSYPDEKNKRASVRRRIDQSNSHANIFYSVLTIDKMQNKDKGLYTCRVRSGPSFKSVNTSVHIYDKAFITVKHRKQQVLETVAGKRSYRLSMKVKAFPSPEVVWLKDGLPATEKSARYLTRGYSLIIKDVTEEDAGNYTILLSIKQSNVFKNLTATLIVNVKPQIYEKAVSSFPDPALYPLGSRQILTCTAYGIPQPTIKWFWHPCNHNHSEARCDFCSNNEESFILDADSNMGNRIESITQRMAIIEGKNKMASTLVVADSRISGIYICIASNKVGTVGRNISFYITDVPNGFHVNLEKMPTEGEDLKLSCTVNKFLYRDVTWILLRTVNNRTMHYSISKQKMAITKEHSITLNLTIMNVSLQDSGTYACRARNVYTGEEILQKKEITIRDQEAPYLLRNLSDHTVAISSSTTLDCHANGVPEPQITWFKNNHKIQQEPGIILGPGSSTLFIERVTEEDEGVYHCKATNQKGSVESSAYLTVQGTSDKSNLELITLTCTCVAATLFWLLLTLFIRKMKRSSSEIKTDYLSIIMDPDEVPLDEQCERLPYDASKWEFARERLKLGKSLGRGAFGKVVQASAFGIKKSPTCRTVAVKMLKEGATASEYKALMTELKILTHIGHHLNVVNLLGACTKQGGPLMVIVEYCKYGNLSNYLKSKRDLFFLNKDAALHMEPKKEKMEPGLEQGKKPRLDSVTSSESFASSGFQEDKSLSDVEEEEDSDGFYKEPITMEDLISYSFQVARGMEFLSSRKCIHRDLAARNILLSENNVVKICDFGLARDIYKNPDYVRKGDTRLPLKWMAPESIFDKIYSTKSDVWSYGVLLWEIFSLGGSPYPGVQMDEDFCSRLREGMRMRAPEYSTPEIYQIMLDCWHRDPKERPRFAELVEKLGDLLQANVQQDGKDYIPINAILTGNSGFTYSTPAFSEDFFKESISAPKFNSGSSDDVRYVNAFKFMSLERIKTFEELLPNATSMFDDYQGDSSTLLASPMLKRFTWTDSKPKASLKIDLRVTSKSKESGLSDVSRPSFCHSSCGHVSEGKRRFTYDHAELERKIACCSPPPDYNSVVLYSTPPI
Chain of Cyclin-dependent kinase 6 (Q00534 whole entry): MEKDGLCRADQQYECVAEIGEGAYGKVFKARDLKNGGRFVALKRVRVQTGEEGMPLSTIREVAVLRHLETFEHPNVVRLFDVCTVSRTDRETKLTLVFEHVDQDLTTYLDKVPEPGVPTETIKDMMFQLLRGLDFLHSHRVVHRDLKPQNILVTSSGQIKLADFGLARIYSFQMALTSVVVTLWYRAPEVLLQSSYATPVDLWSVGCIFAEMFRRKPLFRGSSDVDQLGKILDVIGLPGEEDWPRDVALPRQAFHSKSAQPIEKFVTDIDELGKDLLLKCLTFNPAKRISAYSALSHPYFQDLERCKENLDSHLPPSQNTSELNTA
Chain of Vascular endothelial growth factor receptor 3 (P35916 whole entry): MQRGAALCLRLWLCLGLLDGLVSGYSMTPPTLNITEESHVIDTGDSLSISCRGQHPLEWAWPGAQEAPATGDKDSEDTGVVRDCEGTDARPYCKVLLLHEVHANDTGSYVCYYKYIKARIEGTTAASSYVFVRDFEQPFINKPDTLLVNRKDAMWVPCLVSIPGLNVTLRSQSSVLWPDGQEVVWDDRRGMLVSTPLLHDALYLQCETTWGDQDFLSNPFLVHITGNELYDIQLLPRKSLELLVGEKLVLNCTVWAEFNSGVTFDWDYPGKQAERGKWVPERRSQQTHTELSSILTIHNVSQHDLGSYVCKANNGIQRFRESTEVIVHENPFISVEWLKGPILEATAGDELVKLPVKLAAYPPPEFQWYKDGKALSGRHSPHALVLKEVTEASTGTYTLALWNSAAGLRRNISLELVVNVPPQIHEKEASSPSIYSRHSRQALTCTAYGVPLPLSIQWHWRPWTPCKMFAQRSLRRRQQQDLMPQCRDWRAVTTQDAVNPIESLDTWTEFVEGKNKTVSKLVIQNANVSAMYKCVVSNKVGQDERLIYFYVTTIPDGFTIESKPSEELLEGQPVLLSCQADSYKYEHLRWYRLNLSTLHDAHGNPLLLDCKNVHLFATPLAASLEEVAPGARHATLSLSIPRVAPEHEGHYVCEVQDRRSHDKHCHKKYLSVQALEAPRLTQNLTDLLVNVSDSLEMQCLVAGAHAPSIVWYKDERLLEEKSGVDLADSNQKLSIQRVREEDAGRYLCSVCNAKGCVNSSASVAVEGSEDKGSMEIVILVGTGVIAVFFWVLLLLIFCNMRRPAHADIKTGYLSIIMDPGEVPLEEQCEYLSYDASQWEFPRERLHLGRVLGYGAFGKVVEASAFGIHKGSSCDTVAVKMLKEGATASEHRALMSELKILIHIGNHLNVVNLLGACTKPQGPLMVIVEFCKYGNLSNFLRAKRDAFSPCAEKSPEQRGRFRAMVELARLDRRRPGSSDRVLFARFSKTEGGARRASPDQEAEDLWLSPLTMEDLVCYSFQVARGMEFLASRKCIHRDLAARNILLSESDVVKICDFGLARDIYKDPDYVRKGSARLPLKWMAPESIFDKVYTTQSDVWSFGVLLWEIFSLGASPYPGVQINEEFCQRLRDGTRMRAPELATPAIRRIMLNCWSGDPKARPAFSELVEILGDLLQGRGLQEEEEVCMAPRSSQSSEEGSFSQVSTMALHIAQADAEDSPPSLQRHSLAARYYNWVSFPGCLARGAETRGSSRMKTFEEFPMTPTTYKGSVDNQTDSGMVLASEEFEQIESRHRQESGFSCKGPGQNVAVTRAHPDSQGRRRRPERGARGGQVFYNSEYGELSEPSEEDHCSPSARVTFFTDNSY

Cc1nc2c(c(Nc3c[nH]nc3C(=O)Nc3ccc(N4CCNCC4)cc3)n1)CCC2
Activity [1]: 91.2%
pIC50 (MV4-11 [2]): 7.80
microsomal CLint [3]: 9.4 µL/min/mg
Drug uptake [4]: 28.7%
pIC50 [5]: 6.66
inhibition [6]: > 50%
Ratio IC50 (Homo sapiens): 120
pIC50 (MOLM-13): 7.43
inhibition [7]: Dose-dependent effect
inhibition [8]: Dose-dependent effect
Activity (MV4-11 [9]): 12.8%
Activity (MV4-11 [10]): 9.77%
